Laboratory results as given in US20090117089A1, “GLYCOLIPIDS AND ANALOGUES THEREOF AS ANTIGENS FOR NK T CELLS” (The Rockefeller University, priority 2005, published 2009).
Entries after “also recorded” stand apart in the source; their conditions may differ.

Experiments:
[1] = system: human NKT cells (Vα24/Vβ11); experiment: Human dendritic cell mediated NKT cell expansion; format: cell-based; details: DCs loaded with glycolipid; data not shown
[2] = system: human NKT cells (Vα24/Vβ11); experiment: Human dendritic cell mediated NKT cell expansion; format: cell-based; design: NKT cell expansion (Table 1): unit not given here; details: for NKT cell expansion by loaded human DCs: DC to responder ratio 1:10
Description: Human dendritic cell mediated NKT cell expansion. CD14+ monocytes were isolated from PBMC using anti-CD14 magnetic microbeads and cultured in the presence of GM-CSF and IL-4 to generate DCs, followed at day 5-6, by maturation in an inflammatory cytokine cocktail as described herein. To stimulate NKT cells, DCs were pulsed with α-GalCer and the tested analogs, and cultured with CD14− cells at a DC: responder ratio of 1:10. NKT cell expansion was monitored by flow cytometry based on the expression of the invariant NKT cell receptor (Vα24/Vβ11).

[3] = system: serum IFN-γ, IL-12p70 and other cytokines; experiment: Serum cytokines (Luminex); format: in vivo, mouse; details: for serum IFNγ: 15 hours; for serum IFN-γ, IL-12p70, IL-4, TNF-α and IL-2 response: 2, 6, 12 and 24 h; for serum IFN-γ and IL12p70 release in Jα281−/− mice: i.v. injection
Method: Serum cytokines. […] 25 μl of sample was preincubated with serum diluent and incubated for 2 h with Beadmates coated with anti-cytokine mAbs. The fluid was then aspirated and the wells incubated for 1.5 h with biotin-conjugated anti-cytokine mAbs followed by 30 min incubation with Beadlyte streptavidin-PE secondary antibody. Samples were acquired in duplicate by Luminex and analyzed using Beadview software (Upstate).

[4] = system: allogeneic C57B1/6 or syngeneic T cells; experiment: Stimulation of the mixed leukocyte reaction (MLR) by DCs; format: cell-based, mouse
Method: Stimulation of the mixed leukocyte reaction (MLR) by DCs. Spleen DCs were isolated using anti-CD11c magnetic beads 8 h after administration of αGalCer, 24, or PBS. Graded numbers of spleen DCs from BALB/C mice were irradiated and cultured with 2×10^5 allogeneic C57B1/6 or syngeneic T cells, isolated using anti-CD4 coated magnetic beads (Miltenyi Biotech), in a 96-well flat-bottom plate for 88 h. During the final 16 h, ^3H-thymidine (1 μCi/well) was added.

[5] = system: CD1d reactive T cell hybridomas with an invariant Vα14i T cell antigen receptor; experiment: 1.2 hybridoma assay (IL-2 release by ELISA); format: cell-based, mouse
Method: As a measure of T cell activation, IL-2 release into the tissue culture medium was measured after 16 hours culture by an ELISA assay.
As a measure of T cell activation, IL-2 and IFN-γ release into the tissue culture medium was measured after 16 hours culture by an ELISA assay.

[6] = system: DCs from bone marrow progenitors; experiment: Direct DC maturation from bone marrow progenitors in culture; format: cell-based; details: data not shown
[7] = system: spleen CD11c+ cells (DCs and NK cells); experiment: Cytokine production by DCs after in vivo glycolipid; design: species or system mouse; details: for IL-12p40, IL-6 and TNF-α from DCs of primed mice: cultured in the presence of αCD40, ELISA and Luminex, data not shown
Method: Cytokine production by DCs. After mice were given αGalCer or Compound 24 i.v., CD11c+ cells were isolated with anti-CD11c magnetic beads and cultured 4 h in the presence of Golgistop (from Cytofix/CytoPerm Plus kit; BD Biosciences). Cells were then stained for surface markers (CD11c and DX-5), permeabilized in 100 μl Cytofix/Cytoperm solution using manufacturer's instructions and stained for intracellular cytokines (IFN-γ and IL-12).

spleen CD11c+ DCs = experiment: DC maturation in vivo (surface markers, flow cytometry); design: species or system mouse; details: for dose dependence of DC maturation: 2, 0.2, 0.02 and 0.002 μg/mouse; for DC maturation response compared with αCD40 mAb and polyIC: 15 h following i.v. administration; for DC maturation in Jα281−/− mice: mice lacking NKT cells; for phenotypic changes of DC maturation (CD40, CD86, MHC class II, B7-H1, B7-DC up, CD119 down): mouse, in vivo; for induction of splenic DC maturation in vivo: surface activation markers
Method: 2×10^7 irradiated J558-Ld^− cells, were injected i.v. or s.c. into Balb/c mice with or without α-Gal Cer as a DC maturation stimulus. In some experiments we compared α-Gal Cer to agonistic anti-CD40 mAb (1C10, 25 μg i.p.) or the toll like receptor ligands, poly IC ([…], Invivogen) or lipopolysaccharide (20 μgm, Sigma). The mice had been given CFSE-labeled PICTL CD8^+ T cells i.v. 1 d earlier, or were naive animals. In some experiments, mice were sacrificed 3 d later, and T cell division and activation in spleen were analyzed by flow cytometry. Additionally, 7 d or 2 months later, 5×10^6 live J558 tumor cells were inoculated subcutaneously. 5×10^6 Meth A fibrosarcoma was used as a control tumor for challenge. Tumor cell growth was measured with calipers every other day. Mice were scored positive for tumor as soon as tumors became palpable and grew progressively. Mice were euthanized when tumor size exceeded 400 mm^2.
T-cell division, phagocytosis of CFSE-labeled tumor cells and acquisition of cell surface-activation markers were determined by flow cytometry. Briefly, spleens were harvested and low-density splenocytes were stained with CD11c-APC and CD8α-PE, CD11b-PE, B220-PE or CD4-PE for the up-take examination. For in vivo proliferation of P1CTL T-cells, spleens were harvested and the splenocytes suspension was staining with CD8α-Cy, Vα8α-PE, CD25-PE, CD62L-PE. For intracellular cytokine staining, splenocytes were stimulated in vitro with 1 µg/ml P1A peptide in 5 μg/ml brefeldin A (Sigma-Aldrich) at 37° C. for 4 hrs. The cells were first stained with CD8α-Cy-Chrome™, fixed and permeabilized with cytofix-cytoperm buffer (BD Biosciences), and stained with PE conjugated mAbs to IL-2 or IFN-γ.
Flow cytometry. Acquisition of cell surface-activation markers was determined by flow cytometry. […] Spleen CD11c+ DCs were isolated using anti-CD11c magnetic beads and stained with CD11c-FITC, CD8α− allophycocyanin, and PE-Conjugated I-Ad, CD40, CD80, CD86, CD119, B7-H1 and B7-DC. We used a FACSCalibur™ with data analysis in FlowJo (Tree Star).

[8] = 2 μg or 0.2 μg, 2, 6, 12 h in vivo, intracellular staining

| Compound | production of IFNγ, IL-13 and IL-2 by NKT cells [1] | NKT cell expansion by loaded human DCs [2] | NKT cell expansion (Table 1) ([2]; Donor 1) | NKT cell expansion (Table 1) ([2]; Donor 2) | NKT cell expansion (Table 1) ([2]; Donor 3) | NKT cell expansion (Table 1) ([2]; Donor 4) | serum IL-12p70 ([3]; 0.02 μg, 15 h) [pg/mL] | serum IFNγ ([3]; 0.02 μg) [pg/mL] | serum IFN-γ, IL-12p70, IL-4, TNF-α and IL-2 response ([3]; 2 μg i.v.) | serum IL-12p70 ([3]; 2 μg i.v., by 6 h) [pg/mL] | serum IFN-γ ([3]; 2 μg i.v., by 12 h) [pg/mL] | serum IL-12p70 ([3]; 2 μg i.v., by 12 h) [pg/mL] | serum IFN-γ and IL12p70 release in Jα281−/− mice [3] | stimulation of allogeneic T cells (allo-MLR) by DCs from treated mice [4] | stimulation of syngeneic T cells (syn-MLR) by DCs from treated mice [4] | direct stimulation of DC maturation [6] | IL-12p40, IL-6 and TNF-α from DCs of primed mice [7] | dose dependence of DC maturation (spleen CD11c+ DCs) | DC maturation response compared with αCD40 mAb and polyIC (spleen CD11c+ DCs) | surface markers on CD11c+CD8− DCs (spleen CD11c+ DCs; 15 hours after i.v. glycolipid) | further results |
| --- | --- | --- | --- | --- | --- | --- | --- | --- | --- | --- | --- | --- | --- | --- | --- | --- | --- | --- | --- | --- | --- |
| 3-O-sulfo-alpha-galactosylceramide [Compound 24] | induced rapid production of IFNγ, IL-13 and IL-2 | efficiently expanded human NKT cells; also recorded: comparable or higher than expansion mediated by DCs loaded with αGalCer | 3.19 | 5.95 | 1.51 | 4.95 | ~900 | ~1200 | significantly higher at all time points examined | ~1000 | ~3000 | ~900 | lacked the ability to release IFN-γ and IL12p70 into the serum | equally potent stimulators of the allo-MLR | no stimulatory activity in the syn-MLR | unable to directly stimulate DC maturation from bone marrow progenitors in culture | significant but comparable amounts of IL-12p40, IL-6 and TNF-α | correlated with the dose of glycolipid administered | paralleled and exceeded those seen with other known stimuli for DC maturation in vivo | induced strong upregulation of CD86, B7-H1 and B7-DC but only slightly upregulated MHC II, CD40 and CD80 | serum IFN-γ and IL-12p70, 24 vs. αGalCer ([3]; all doses tested, 15 hours after i.v. injection): at least 2.5 fold; biological activity in the 1.2 hybridoma assay (IL-2 secretion) [5]: moderately active; production of IFN-γ by CD11c+DX5+ NK cells, vs. αGalCer [7, 8]: significantly higher; production of IL-12 by CD11c+DX5− DCs, vs. αGalCer [7, 8]: significantly higher; upregulation of activation markers on CD11c+CD8+ DCs (spleen CD11c+ DCs; 15 hours after i.v. glycolipid, 2 or 0.2 μg per mouse): comparable to αGalCer; DC maturation in Jα281−/− mice (spleen CD11c+ DCs): did not mature; phenotypic changes of DC maturation (CD40, CD86, MHC class II, B7-H1, B7-DC up, CD119 down) (spleen CD11c+ DCs): induced similar phenotypic changes of maturation; induction of splenic DC maturation in vivo (spleen CD11c+ DCs): rapid and efficient inducers of splenic DC maturation in vivo |
| CCCCCCCCCCCCCCCCCCCCCCCCCC(=O)N[C@@H](CO[C@H]1O[C@H](CO)[C@H](O)[C@H](O)[C@H]1O)[C@H](O)[C@H](O)CCCCCCCCCCCCCC [α-GalCer, 2S,3S,4R-1-O(α-galactopyranosyl)-2(N-hexacosanoylamino)-1,3,4-octadecanetriol] | induced rapid production of IFNγ, IL-13 and IL-2 | efficient inducers of NKT cell expansion in culture | 3.55 | 2.65 | 1.53 | 3.55 | ~50 | ~100 | induced rapid increases in serum IFN-γ, IL-12p70, IL-4, TNF-α and IL-2 concentrations | ~600 | ~1200 | ~200 | lacked the ability to release IFN-γ and IL12p70 into the serum | equally potent stimulators of the allo-MLR | no stimulatory activity in the syn-MLR | unable to directly stimulate DC maturation from bone marrow progenitors in culture | significant but comparable amounts of IL-12p40, IL-6 and TNF-α | correlated with the dose of glycolipid administered | paralleled and exceeded those seen with other known stimuli for DC maturation in vivo | induced strong upregulation of CD86, B7-H1 and B7-DC but only slightly upregulated MHC II, CD40 and CD80 | serum IFN-γ ([3]; 2 μg i.v., by 6 h): 6000 pg/mL; IL-2 release from the hybridomas ([5]; 1 μg/ml, CD1d transfected A20 cells): greatest amount of IL-2 release; IL-2 secretion ([5]; CD1d coated plates, Sphingomonas glycolipids and analogues): greater IL-2 secretion; marker expression on DCs that captured dying tumor cells (CD11c+ CFSE+) (spleen CD11c+ DCs; co-injection with irradiated J558− cells i.v.): strongly upregulated the expression of antigen presenting and costimulatory molecules; maturation of total CD11c+ splenic DCs (MHC II, CD80, CD86, B7-H1, B7-DC) (spleen CD11c+ DCs; co-injection with irradiated J558− cells i.v., 5 hours): resulted in the maturation of the total CD11c^+ DC population; DC maturation in Jα281−/− mice (spleen CD11c+ DCs): did not mature; phenotypic changes of DC maturation (CD40, CD86, MHC class II, B7-H1, B7-DC up, CD119 down) (spleen CD11c+ DCs): induced similar phenotypic changes of maturation; induction of splenic DC maturation in vivo (spleen CD11c+ DCs): rapid and efficient inducers of splenic DC maturation in vivo |
